{"source": "paper PMC7724566", "about": "“Prospects for Clinical Development of Stat5 Inhibitor IST5-002: High Transcriptomic Specificity in Prostate Cancer and Low Toxicity In Vivo” (Cancers, 2020)", "key": {"PC xenograft tumors": {"test_system": "PC xenograft tumors", "set-up": "method as in PMID 18316550, PMID 23942095, PMID 26362718, PMID 20966544, PMID 20233708", "conditions": "cited from earlier work"}, "JAK3": {"biological_target": "T1, JAK3 (Homo sapiens, UniProt P52333)", "T1 sequence (P52333 1-1124)": "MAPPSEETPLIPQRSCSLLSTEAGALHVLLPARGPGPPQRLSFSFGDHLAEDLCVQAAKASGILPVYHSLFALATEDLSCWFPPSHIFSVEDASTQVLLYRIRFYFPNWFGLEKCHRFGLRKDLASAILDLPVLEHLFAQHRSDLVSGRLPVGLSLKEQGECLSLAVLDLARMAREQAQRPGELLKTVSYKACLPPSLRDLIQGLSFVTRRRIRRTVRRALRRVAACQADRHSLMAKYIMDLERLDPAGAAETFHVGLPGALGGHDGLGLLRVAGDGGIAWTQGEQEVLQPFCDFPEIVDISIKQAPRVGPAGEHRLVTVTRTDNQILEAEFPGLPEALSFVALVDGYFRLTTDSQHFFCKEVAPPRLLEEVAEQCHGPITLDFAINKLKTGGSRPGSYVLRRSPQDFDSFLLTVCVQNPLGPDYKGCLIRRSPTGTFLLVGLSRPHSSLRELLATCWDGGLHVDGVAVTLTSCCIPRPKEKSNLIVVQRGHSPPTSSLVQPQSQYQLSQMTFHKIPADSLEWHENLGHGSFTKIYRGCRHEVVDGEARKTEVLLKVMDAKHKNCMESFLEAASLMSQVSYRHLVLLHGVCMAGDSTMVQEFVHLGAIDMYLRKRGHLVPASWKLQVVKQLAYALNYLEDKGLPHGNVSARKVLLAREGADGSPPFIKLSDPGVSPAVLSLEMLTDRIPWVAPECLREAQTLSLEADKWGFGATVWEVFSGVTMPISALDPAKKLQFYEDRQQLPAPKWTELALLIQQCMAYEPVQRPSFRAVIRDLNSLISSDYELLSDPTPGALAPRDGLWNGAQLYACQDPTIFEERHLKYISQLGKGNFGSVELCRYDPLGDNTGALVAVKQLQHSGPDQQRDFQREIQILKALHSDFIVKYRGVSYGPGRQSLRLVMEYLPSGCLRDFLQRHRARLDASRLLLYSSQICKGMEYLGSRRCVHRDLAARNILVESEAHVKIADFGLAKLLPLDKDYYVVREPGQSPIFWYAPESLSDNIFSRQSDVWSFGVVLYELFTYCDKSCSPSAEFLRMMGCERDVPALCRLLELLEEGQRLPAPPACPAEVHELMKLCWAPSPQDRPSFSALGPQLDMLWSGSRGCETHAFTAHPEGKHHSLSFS", "assay": "Radiometric filtration binding cell-free kinase assay", "format": "biochemical", "set-up": "purchased Reaction Biology (JAK1/2/3, TYK2); Luceome Biotechnologies KinaseSeeker (others)", "conditions": "percent activity of kinase after exposure to IST5 1 µM", "experimental": "For Jak1, Jak2, Jak3 and Tyk2, a radiometric filtration binding assay was conducted by Reaction Biologicals (Malvern, PA, USA) (Table 1). This radiometric assay is a cell-free assay which is based on conventional filter-binding assays, directly measuring kinase catalytic activity toward a specific substrate. For evaluation of the activity of the other kinases, the Kinase Seeker Technology was utilized (Luceome Biotechnologies, Tucson, AZ, USA), which is a luminescence-based cell-free assay. In this assay, the reassembly of luciferase fragments is mediated by the interaction of a kinase with an active site-dependent probe. The competitive displacement of the probe by an inhibitor is measured by a change in luminescence signal. Percent activity of each kinase after exposure to IST5 (1 µM) is presented."}}}
{"smiles": "O=P(O)(O)OCC1OC(n2cnc3c(NCc4ccccc4)ncnc32)C(O)C1O", "note": "(centres unmarked) [IST5]", "values": [{"measurement": "growth of PC xenograft tumors in mice in vivo", "setting": "PC xenograft tumors", "result": "block growth"}, {"measurement": "Activity", "setting": "JAK3", "result": 100.0, "unit": "%"}]}
